Reference: PubChem BioAssay AID1963843 (Molecular Pharmacology Branch, DTP, NCI, 2024)

System: 616215-338-R-J1-PDC complex spheroid viability
Assay: Anticancer human tumor 616215-338-R-J1-PDC patient-derived colon adenocarcinoma cell line growth inhibition [POLQ]
Details: for IC50: curve of first compound; for viability, T/C: stronger effect = lower value
Summary of the method: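 PDC + HUVEC + MSC complex spheroids; POLQ inhibitors ± partner drugs; top conc. at/near clinical Cmax, else 10 microM (SN-38 1 microM), half-log dilutions; 37 degrees C, 5% CO2.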

[1] = second compound 0.0316 µM, first compound 0.00316 µM
[2] = second compound 0.0316 µM, first compound 0.01 µM
[3] = second compound 0.0316 µM, first compound 0.0316 µM
[4] = second compound 0.0316 µM, first compound 0.1 µM
[5] = second compound 0.1 µM, first compound 0.00316 µM
[6] = second compound 0.1 µM, first compound 0.01 µM
[7] = second compound 0.1 µM, first compound 0.0316 µM
[8] = second compound 0.1 µM, first compound 0.1 µM
[9] = second compound 0.316 µM, first compound 0.00316 µM
[10] = second compound 0.316 µM, first compound 0.01 µM
[11] = second compound 0.316 µM, first compound 0.0316 µM
[12] = second compound 0.316 µM, first compound 0.1 µM
[13] = second compound 1 µM, first compound 0.00316 µM
[14] = second compound 1 µM, first compound 0.01 µM
[15] = second compound 1 µM, first compound 0.0316 µM
[16] = second compound 1 µM, first compound 0.1 µM
[17] = second compound 3.16 µM, first compound 0.00316 µM
[18] = second compound 3.16 µM, first compound 0.01 µM
[19] = second compound 3.16 µM, first compound 0.0316 µM
[20] = second compound 3.16 µM, first compound 0.1 µM
[21] = second compound 10 µM, first compound 0.00316 µM
[22] = second compound 10 µM, first compound 0.01 µM
[23] = second compound 10 µM, first compound 0.0316 µM
[24] = second compound 10 µM, first compound 0.1 µM
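Further: spheroids exposed to compounds for one week before readout.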
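Wherever viability, T/C is given: percent viability relative to DMSO vehicle wells taken as 100%.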

C=CCn1c(=O)c2cnc(Nc3ccc(N4CCN(C)CC4)cc3)nc2n1-c1cccc(C(C)(C)O)n1 + Nc1ccc(C#CCN(C(=O)Cc2ncc(C(F)(F)F)cc2C(F)(F)F)c2ccc(F)cc2)nn1
IC50 (second compound 0.0316 µM): 0.43 µM | IC50 (second compound 0.1 µM): 0.285 µM | IC50 (second compound 0.316 µM): 0.302 µM | IC50 (second compound 1 µM): 0.365 µM | IC50 (second compound 3.16 µM): 0.359 µM | IC50 (second compound 10 µM): 0.244 µM | viability, T/C [1]: 102% | viability, T/C [2]: 98.7% | viability, T/C [3]: 98.4% | viability, T/C [4]: 96.9% | viability, T/C (second compound 0.0316 µM, first compound 0.316 µM): 55.4% | viability, T/C (second compound 0.0316 µM, first compound 1 µM): 35.4% | viability, T/C [5]: 102% | viability, T/C [6]: 89.1% | viability, T/C [7]: 96.8% | viability, T/C [8]: 97.1% | viability, T/C (second compound 0.1 µM, first compound 0.316 µM): 45.3% | viability, T/C (second compound 0.1 µM, first compound 1 µM): 29.1% | viability, T/C [9]: 99.8% | viability, T/C [10]: 111% | viability, T/C [11]: 107% | viability, T/C [12]: 83% | viability, T/C (second compound 0.316 µM, first compound 0.316 µM): 49.9% | viability, T/C (second compound 0.316 µM, first compound 1 µM): 28.1% | viability, T/C [13]: 98.9% | viability, T/C [14]: 103% | viability, T/C [15]: 100% | viability, T/C [16]: 96.8% | viability, T/C (second compound 1 µM, first compound 0.316 µM): 53.2% | viability, T/C (second compound 1 µM, first compound 1 µM): 27.6% | viability, T/C [17]: 90% | viability, T/C [18]: 97.9% | viability, T/C [19]: 94.6% | viability, T/C [20]: 87.9% | viability, T/C (second compound 3.16 µM, first compound 0.316 µM): 52.9% | viability, T/C (second compound 3.16 µM, first compound 1 µM): 27% | viability, T/C [21]: 79% | viability, T/C [22]: 91.4% | viability, T/C [23]: 91.1% | viability, T/C [24]: 79.3% | viability, T/C (second compound 10 µM, first compound 0.316 µM): 41.4% | viability, T/C (second compound 10 µM, first compound 1 µM): 26.5%

CC[C@@]1(O)C(=O)OCc2c1cc1n(c2=O)Cc2cc3c(CN(C)C)c(O)ccc3nc2-1 + Nc1ccc(C#CCN(C(=O)Cc2ncc(C(F)(F)F)cc2C(F)(F)F)c2ccc(F)cc2)nn1
IC50 (second compound 0.0316 µM): 0.0699 µM | IC50 (second compound 0.1 µM): 0.073 µM | IC50 (second compound 0.316 µM): 0.0663 µM | IC50 (second compound 1 µM): 0.0666 µM | IC50 (second compound 3.16 µM): 0.0594 µM | IC50 (second compound 10 µM): 0.0461 µM | viability, T/C (second compound 0.0316 µM, first compound 0.000316 µM): 112% | viability, T/C (second compound 0.0316 µM, first compound 0.001 µM): 105% | viability, T/C [1]: 100% | viability, T/C [2]: 101% | viability, T/C [3]: 89.4% | viability, T/C [4]: 32.3% | viability, T/C (second compound 0.1 µM, first compound 0.000316 µM): 103% | viability, T/C (second compound 0.1 µM, first compound 0.001 µM): 103% | viability, T/C [5]: 98.1% | viability, T/C [6]: 102% | viability, T/C [7]: 83.4% | viability, T/C [8]: 37.5% | viability, T/C (second compound 0.316 µM, first compound 0.000316 µM): 111% | viability, T/C (second compound 0.316 µM, first compound 0.001 µM): 119% | viability, T/C [9]: 98.6% | viability, T/C [10]: 99.3% | viability, T/C [11]: 79.8% | viability, T/C [12]: 33.6% | viability, T/C (second compound 1 µM, first compound 0.000316 µM): 108% | viability, T/C (second compound 1 µM, first compound 0.001 µM): 96.6% | viability, T/C [13]: 107% | viability, T/C [14]: 104% | viability, T/C [15]: 66.1% | viability, T/C [16]: 41.1% | viability, T/C (second compound 3.16 µM, first compound 0.000316 µM): 97.9% | viability, T/C (second compound 3.16 µM, first compound 0.001 µM): 108% | viability, T/C [17]: 98.2% | viability, T/C [18]: 98.3% | viability, T/C [19]: 75.3% | viability, T/C [20]: 29.1% | viability, T/C (second compound 10 µM, first compound 0.000316 µM): 85.5% | viability, T/C (second compound 10 µM, first compound 0.001 µM): 90.1% | viability, T/C [21]: 96.4% | viability, T/C [22]: 94.2% | viability, T/C [23]: 55.8% | viability, T/C [24]: 38%
